Values joined by “and” are separate entries in the source; they are usually repeats but may differ in a detail not shown here. Equal values may be shown once. Read-outs that look alike come from different tables or passages of the source. Numbered stars: 1 amine (or outer) side, 2 acyl side, 3 side chain; on linkers, the order of the positions; unused ones are H or OH. Bridge positions count the residues as written; N and C are the ends. Square brackets hold non-standard residues; d marks the D form. Peptide text beside a SMILES is read from it. * marks the point of attachment. Orn(4R-OH,5R-OH) = O=C([C@H](C[C@@H](O)[C@@H](O)N[*:3])N[*:1])[*:2]; hTyr(3S-OH,4S-OH) = N[C@H](C(=O)O)[C@H](O)[C@@H](O)c1ccc(O)cc1; Pro(3S-OH,4S-Me) = C[C@H]1CN[C@H](C(=O)O)[C@H]1O; Nonadecanoyl = CCCCCCCCCCCCCCCCCCC(=O)*; Palmitoleoyl = CCCCCC/C=C\CCCCCCCC(=O)*; Oleoyl = CCCCCCCC/C=C\CCCCCCCC(=O)*; X2 = CCCCC/C=C/C/C=C/CCCCCCCC(=O)*; X4 = CCCCCCCC/C=C\CCCCCCCCCC(=O)*; Hyp = O=C(O)[C@@H]1C[C@@H](O)CN1; X6 = CCCCCC/C=C\CCCCCCCCCC(=O)*; X5 = CCCCCC/C=C/CCCCCCCC(=O)*; Lauroyl = CCCCCCCCCCCC(=O)*
Tests used:
[1] = tested on: Saccharomyces pastoranius X-52; test: Agar plate disc diffusion test (zone of inhibition); format: cell-based, Saccharomyces pastorianus; settings: X52, suspension in methanol 1 mg/ml, 7mm disc, 24-48 hours at 25-37° C., read-out: Size of zone of inhibition, Saccharomyces pastoranius X-52
Experimental: (§1) Tables II and III give the results of the testing in vitro of the compounds of Examples 1-16 by agar-plate disc-diffusion methods. In Table II activity is measured by the size (diameter in mm.) of the observed zone of inhibition of the microorganism produced by the test compound. In Table III, activity is measured by the minimal inhibitory concentration (MIC) of the substance (μg/dic) required to inhibit growth of the test organism. Table IV gives the results of the testing in vitro of the n-tridecanoyl derivative of A30912A nucleus (Formula III, R is n-C12 H25) against five strains of Candida albicans by the agar dilution method. In […] activity is measured by the minimal inhibitory concentration (MIC) of the substance (μg/ml) required to inhibit the test organism.
(§2) ^(a) Compounds were tested as suspension in methanol at a
(§3) concentration of 1 mg/ml. by dipping a 7mm disc into the suspension and
(§4) placing it on the agar surface. Incubation: 24-48 hours at 25-37°

[2] = tested on: Candida albicans A-26; test: In vivo activity against Candida albicans A-26 infection in mice; parameters: species or system mice infected with Candida albicans A-26; settings: mice, subcutaneous; for ED50 / minimal effective dose: Candida albicans, A26, sc, 24 h; for ED50: increase in survival time, read-out: ED50; for minimal effective dose: read-out: Lowest Active Dose
Experimental: The results of in vivo tests to evaluate the effectiveness of the compound of Examples 1-16 against an infection caused by Candida albicans A-26 in mice are given in Table V, where activity is measured by the ED50 value (the dose in mg/kg. required to cure 50% of the test animals). Where an ED50 value was not obtained, activity is indicated by the lowest dose at which a significant anti-fungal effect is observed. In this test, groups of male albino mice (specific pathogen free), weighing 18 to 20 grams, are infected intravenously with Candida albicans A-26. The animals are X-irradiated 24 hours prior to infection at about 50 roentgens per minute for 8 minutes (400 total dose) to reduce immune responses to the infecting organism. At 0, 4, and 24 hours post infection each group of mice is given graded doses subcutaneously of the test compound as a suspension in 33% polyethylene glycol-water. The day of death for each animal is recorded.
mg/kg. Dosages given 0, 4, and 24 hours post injection as suspension of
test compound in 30% PEG--H2 O. Number of mice receiving test
compounds at each dosage level; 6 mice per group. Number of mice in
control (untreated) group: 10 mice per group.
**As measured by increase in survival time of treated animals versus
control, calculated by method of Reed v Mueuch, American J. Hygiene, 27,

[3] = tested on: Candida albicans A-26; test: Agar plate disc diffusion test (MIC); format: cell-based; settings: 0.01M sodium borate pH 7.5; 20 μg/disc top, twofold dilutions; 24 hours, 30° C.
Experimental: as §1
(§5) *Compounds were suspended in 0.01M sodium borate solution, pH 7.5. The
(§6) compounds were tested at 20 μg/disc at top level and at twofold
(§7) dilutions until end points were reached. Incubation: 24 hours; 30°

[4] = tested on: Trichophyton mentagrophytes #6; test: Agar plate disc diffusion test (MIC); format: cell-based; settings: 0.01M sodium borate pH 7.5; 20 μg/disc top, twofold dilutions; 24 hours, 30° C.
Experimental: as §1, §5, §6, §7

[5] = Blood levels after oral administration in mice (bioassay vs. Aspergillus montevidensis A35137); settings: mouse, in vivo; for Blood Levels After Oral Administration In Mice: 240 min; for concentration at 4 h: po, 416 mg/kg
From the text: determined by bioassay vs. Aspergillus montevidensis A35137.

[6] = tested on: Candida albicans A-26; test: Agar plate disc diffusion test (zone of inhibition); format: cell-based; settings: suspension in methanol 1 mg/ml, 7mm disc; 24-48 hours at 25-37° C.
Experimental: as §1, §2, §3, §4

[7] = tested on: Neurospora crassa 846; test: as above; format: cell-based; settings: Neurospora crassa, 846, suspension in methanol 1 mg/ml, 7mm disc
Experimental: as §1, §2, §3, §4

[8] = tested on: Trichophyton mentagraphytes A-23; test: as above; format: cell-based, Trichophyton mentagrophytes; settings: A23, suspension in methanol 1 mg/ml, 7mm disc
Experimental: as §1, §2, §3, §4

[9] = schedule B (80, 40, 20, 10 mg/kg), 0, 4, 24 hours
[10] = 24-48 hours at 25-37° C., read-out: Size of zone of inhibition, Neurospora crassa 846
[11] = schedule A (40, 20, 15, and 10 mg/kg), 0, 4, 24 hours
[12] = *distinct measurable zone of inhibition with regrowth of organism around disc, read-out: Size of zone of inhibition, Neurospora crassa 846 (*)
[13] = *distinct measurable zone of inhibition with regrowth of organism around disc, read-out: Size of zone of inhibition, Trichophyton mentagraphytes A-23 (*)
[14] = 24-48 hours at 25-37° C., read-out: Size of zone of inhibition, Trichophyton mentagraphytes A-23

| SMILES | zone of inhibition at 1000 µg/mL [1] [mm] | ED50 [2, 9] [mg/kg] | minimal effective dose [2, 9] [mg/kg] | MIC, Candida albicans A-26 [3] | MIC, Trichophyton mentagrophytes #6 [4] | Blood Levels After Oral Administration In Mice [5] [µg/mL] | Size of zone of inhibition, Candida albicans A-26 [6] [mm] | zone of inhibition at 1000 µg/mL [7, 10] [mm] | ED50 [2, 11] [mg/kg] | minimal effective dose [2, 11] [mg/kg] | concentration at 4 h [5] [µg/mL] | zone of inhibition at 1000 µg/mL [7, 12] [mm] | zone of inhibition at 1000 µg/mL [8, 13] [mm] | zone of inhibition at 1000 µg/mL [8, 14] [mm] | Lowest Active Dose [2, 11] [mg/kg] |
| --- | --- | --- | --- | --- | --- | --- | --- | --- | --- | --- | --- | --- | --- | --- | --- |
| CCCCCCCCCCCC(=O)N[C@H]1C[C@@H](O)[C@@H](O)NC(=O)[C@@H]2[C@@H](O)[C@@H](C)CN2C(=O)[C@H]([C@@H](C)O)NC(=O)[C@H]([C@H](O)[C@@H](O)c2ccc(O)cc2)NC(=O)[C@@H]2C[C@@H](O)CN2C(=O)[C@H]([C@@H](C)O)NC1=O [Example 1] (Lauroyl-[Orn(4R-OH,5R-OH)]T[Hyp][hTyr(3S-OH,4S-OH)]T[Pro(3S-OH,4S-Me)]; lactam 1-C) | 16 | 62 | 20 | 1.25 μg/disc | 0.078 μg/disc | 0 | 25 | 40 |  |  |  |  |  |  |  |
| CCCCCC/C=C\CCCCCCCC(=O)N[C@H]1C[C@@H](O)[C@@H](O)NC(=O)[C@@H]2[C@@H](O)[C@@H](C)CN2C(=O)[C@H]([C@@H](C)O)NC(=O)[C@H]([C@H](O)[C@@H](O)c2ccc(O)cc2)NC(=O)[C@@H]2C[C@@H](O)CN2C(=O)[C@H]([C@@H](C)O)NC1=O [Example 4] (Palmitoleoyl-[Orn(4R-OH,5R-OH)]T[Hyp][hTyr(3S-OH,4S-OH)]T[Pro(3S-OH,4S-Me)]; lactam 1-C) |  |  |  |  | < 0.039 μg/disc |  |  |  | > 40 | 20 | 0.19 |  |  |  |  |
| CCCCCCCCCCCCCCCCCCC(=O)N[C@H]1C[C@@H](O)[C@@H](O)NC(=O)[C@@H]2[C@@H](O)[C@@H](C)CN2C(=O)[C@H]([C@@H](C)O)NC(=O)[C@H]([C@H](O)[C@@H](O)c2ccc(O)cc2)NC(=O)[C@@H]2C[C@@H](O)CN2C(=O)[C@H]([C@@H](C)O)NC1=O [Example 12] (Nonadecanoyl-[Orn(4R-OH,5R-OH)]T[Hyp][hTyr(3S-OH,4S-OH)]T[Pro(3S-OH,4S-Me)]; lactam 1-C) | 17 |  |  | 2.5 μg/disc and 5.0 μg/disc | 1.25 μg/disc and 0.625 μg/disc |  | 19 |  |  | ≥ 5 | 54 | 18 | 22 |  |  |
| CCCCC/C=C/C/C=C/CCCCCCCC(=O)N[C@H]1C[C@@H](O)[C@@H](O)NC(=O)[C@@H]2[C@@H](O)[C@@H](C)CN2C(=O)[C@H]([C@@H](C)O)NC(=O)[C@H]([C@H](O)[C@@H](O)c2ccc(O)cc2)NC(=O)[C@@H]2C[C@@H](O)CN2C(=O)[C@H]([C@@H](C)O)NC1=O [Example 10] (X2-[Orn(4R-OH,5R-OH)]T[Hyp][hTyr(3S-OH,4S-OH)]T[Pro(3S-OH,4S-Me)]; lactam 1-C) | 24 |  |  | 0.156 μg/disc | < 0.039 μg/disc |  | 24 |  | 16 | 10 | 0.61 | 26 |  | 36 |  |
| CCCCCC/C=C\CCCCCCCCCC(=O)N[C@H]1C[C@@H](O)[C@@H](O)NC(=O)[C@@H]2[C@@H](O)[C@@H](C)CN2C(=O)[C@H]([C@@H](C)O)NC(=O)[C@H]([C@H](O)[C@@H](O)c2ccc(O)cc2)NC(=O)[C@@H]2C[C@@H](O)CN2C(=O)[C@H]([C@@H](C)O)NC1=O [Example 9] (X6-[Orn(4R-OH,5R-OH)]T[Hyp][hTyr(3S-OH,4S-OH)]T[Pro(3S-OH,4S-Me)]; lactam 1-C) |  |  |  | 0.312 μg/disc | < 0.039 μg/disc |  |  |  | > 40 | 40 | 4.2 |  |  |  |  |
| CCCCCCCC/C=C\CCCCCCCCCC(=O)N[C@H]1C[C@@H](O)[C@@H](O)NC(=O)[C@@H]2[C@@H](O)[C@@H](C)CN2C(=O)[C@H]([C@@H](C)O)NC(=O)[C@H]([C@H](O)[C@@H](O)c2ccc(O)cc2)NC(=O)[C@@H]2C[C@@H](O)CN2C(=O)[C@H]([C@@H](C)O)NC1=O [Example 14] (X4-[Orn(4R-OH,5R-OH)]T[Hyp][hTyr(3S-OH,4S-OH)]T[Pro(3S-OH,4S-Me)]; lactam 1-C) | 18 |  |  | 1.25 μg/disc and 2.5 μg/disc |  |  | 22 | 18 |  | 10 |  |  | 23 |  |  |
| CCCCCCCC/C=C\CCCCCCCC(=O)N[C@H]1C[C@@H](O)[C@@H](O)NC(=O)[C@@H]2[C@@H](O)[C@@H](C)CN2C(=O)[C@H]([C@@H](C)O)NC(=O)[C@H]([C@H](O)[C@@H](O)c2ccc(O)cc2)NC(=O)[C@@H]2C[C@@H](O)CN2C(=O)[C@H]([C@@H](C)O)NC1=O [Example 7] (Oleoyl-[Orn(4R-OH,5R-OH)]T[Hyp][hTyr(3S-OH,4S-OH)]T[Pro(3S-OH,4S-Me)]; lactam 1-C) | 19 |  |  | 0.625 μg/disc |  | 0 | 23 | 18 |  | 10 |  |  |  | 1 | 20 |
| CCCCCC/C=C/CCCCCCCC(=O)N[C@H]1C[C@@H](O)[C@@H](O)NC(=O)[C@@H]2[C@@H](O)[C@@H](C)CN2C(=O)[C@H]([C@@H](C)O)NC(=O)[C@H]([C@H](O)[C@@H](O)c2ccc(O)cc2)NC(=O)[C@@H]2C[C@@H](O)CN2C(=O)[C@H]([C@@H](C)O)NC1=O [Example 3] (X5-[Orn(4R-OH,5R-OH)]T[Hyp][hTyr(3S-OH,4S-OH)]T[Pro(3S-OH,4S-Me)]; lactam 1-C) | 19 |  |  |  |  |  | 24 |  | 40 | 20 |  | 40 | 50 |  |  |
